79 compounds from the METLIN SMRT retention time set (Domingo-Almenara et al. 2019) can be followed below.

A short description of the data set: gradient 5% acetonitrile 3 min, to 50% in 2 min, to 85% in 15 min, held 3 min, 100 µL/min. To be noted: column: Zorbax Extend-C18 2.1 x 50 mm; eluents: water / acetonitrile, 0.1% formic acid. A digest of the protocol: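 Retention time was recorded from adduct peaks, which were picked computationally and each inspected manually. Pure standards ran in mixtures of ~100 molecules on HPLC coupled to a quadrupole time-of-flight mass spectrometer, in positive and negative ionization mode, through a Zorbax Extend-C18 column (2.1 × 50 mm, 1.8 μm) at 100 μL/min. Eluents were water and acetonitrile, each with 0.1% formic acid.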
Consider `Cc1noc(C)c1CCC(=O)N1CCN(Cc2csc(-c3ccccc3)n2)CC1`, for which the RP-LC retention time stood at 576 s.

As to `OC(COCc1ccc(Cl)cc1)CN1CCN(c2ccccn2)CC1` (centres undefined), the RP-LC retention time was 567 s.

In turn, `Cc1ccc(CNC(=O)c2cc(-c3ccncc3)cn2Cc2ccccc2C)o1` registered an RP-LC retention time of 749 s.

`Cc1cc(C)cc(-c2nc(C3CC(=O)N(c4ccc(F)cc4)C3)no2)c1` (centres undefined): the RP-LC retention time was determined as 1060 s.

Turning to `Cc1nnc2c(=O)n(CC(=O)NCc3ccc(F)cc3Cl)c3cccnc3n12`, the RP-LC retention time was 710 s.

On to `CCn1cc2c(n1)c(=O)n(Cc1ccccc1)c(=O)n2CC(=O)NCc1ccccc1`, for which the RP-LC retention time was found to be 819 s.

Take `CS(=O)(=O)N1CCc2ccc(C(=O)NCCN3CCC(N4CCCCC4)CC3)cc21`: the RP-LC retention time stood at 583 s.

`CCn1c(=O)sc2cc(S(=O)(=O)N3CCC(C(=O)Nc4cccc(SC)c4)CC3)ccc21` displayed an RP-LC retention time of 975 s.

`O=C(CNC(=O)Cc1ccc(Cl)cc1)NCc1[nH]nc2ccccc12` had an RP-LC retention time of 703 s.

As for `COc1ccc(NC(=O)C2CCN(c3nnc(-c4ccc(OC)cc4)o3)CC2)cc1`, the RP-LC retention time was found to be 824 s.

Compound `Cc1cccc(N2CCN(C(=O)CCC3CCN(c4cc(NC5CC5)ncn4)CC3)CC2)c1` displayed an RP-LC retention time of 717 s.

Take `COCCCNC(=O)c1ccc(-c2nc(CN3CCc4ccccc43)c(C)o2)cc1`: the RP-LC retention time was determined as 951 s.

`Cc1cccc(CN2CC=C(C(=O)N3CCN(c4ccccc4C)CC3)CC2)c1` had an RP-LC retention time of 726 s.

As for `CC(C)n1cnc(S(=O)(=O)N2CCC(C(=O)N3CCN(c4ccccn4)CC3)CC2)c1`, the RP-LC retention time was determined as 571 s.

In turn, `COc1ccc(OC)c(NC(=O)C2c3ccccc3C(=O)N3CCc4ccccc4C23)c1` (centres undefined) returned an RP-LC retention time of 903 s.

For `COCC(=O)Nc1cc2c(cc1N1CCCCC1)n(C)c(=O)c(=O)n2C`, the RP-LC retention time stood at 775 s.

For the compound `COc1cccc(N2CCN(C(=O)c3cc(NC(=O)C(C)C)cc4nc(C)ccc34)CC2)c1`, the RP-LC retention time worked out at 681 s.

In turn, `CCCCN(C)C(=O)CN1C(=O)C2CCCCN2c2ccc(S(=O)(=O)N(CC)CC)cc21` (centres undefined) returned an RP-LC retention time of 1010 s.

For the compound `Cc1cc(C)cc(NC(=O)N2CCC(N3CCN(Cc4ccccc4)C(=O)C3=O)CC2)c1`, the RP-LC retention time turned out to be 740 s.

The compound `Cc1oc(CNC(=O)Nc2ccc(Cl)cc2F)nc1C(=O)N1CCCC1` showed an RP-LC retention time of 723 s.

Compound `Cc1nn(C)c(=O)c2cc(S(=O)(=O)NCCC3=CCCCC3)cn12` displayed an RP-LC retention time of 966 s.

With `CC(=O)N1CCc2cc(N3CC(C(=O)Nc4ccc(Br)cc4)CC3=O)ccc21` (centres undefined), the RP-LC retention time was found to be 770 s.

For `O=C(C1CCCCC1)N1CCc2nc(-c3ccc(Cl)cc3)ncc2C1`, the RP-LC retention time is 1180 s.

For `Cc1cccc(C)c1OCC(=O)Nc1nc(-c2ccccc2)cs1`, the RP-LC retention time came to 1180 s.

`O=C(c1ccc(OCC2CCCN2C(=O)c2ccc(F)c(F)c2)cc1)N1CCCC1` (centres undefined) returned an RP-LC retention time of 779 s.

`COCCn1cc2c3c(cccc31)CN(C(=O)c1ccc(Br)o1)CC2` had an RP-LC retention time of 976 s.

In turn, `C=CCN(CC=C)C(=O)Cn1c(C2CC(=O)N(c3ccc(OC)cc3)C2)nc2ccccc21` (centres undefined) displayed an RP-LC retention time of 682 s.

The compound `CC(C)CNC(=O)CCn1c(=O)c2ccccc2n2c(=O)n(Cc3ccc(F)cc3)nc12` returned an RP-LC retention time of 870 s.

Regarding `O=C(Cn1ccn2nc(-c3ccccc3)c(CO)c2c1=O)Nc1cc(F)ccc1Cl`, the RP-LC retention time was 868 s.

`COC(=O)C1=CN(CC(=O)N2CCN(c3ccccc3F)CC2)S(=O)(=O)N=C1C` gave an RP-LC retention time of 908 s.

Turning to `O=C1CC(C(=O)N2CCN(Cc3ccc4c(c3)OCO4)CC2)CN1CCc1c[nH]c2ccc(F)cc12` (centres undefined), the RP-LC retention time was 649 s.

In the case of `COc1ccc(S(=O)(=O)N2CCCC(C(=O)NCc3ccccn3)C2)cc1OC` (centres undefined), the RP-LC retention time was found to be 604 s.

For the compound `Fc1cccc(F)c1C1SCc2nc3ccccc3n21` (centres undefined), the RP-LC retention time stood at 797 s.

`COc1ccc(-c2ncc3c(n2)CCN(S(=O)(=O)c2cccc(Cl)c2C)C3)cc1` came in with an RP-LC retention time of 1180 s.

With `O=C(Nc1ccc(S(=O)(=O)N2CCOCC2)cc1)c1ccc(Cl)s1`, the RP-LC retention time was 767 s.

Compound `Cc1noc(C2CCCCCN2C(=O)NC(C)C)n1` (centres undefined) yielded an RP-LC retention time of 708 s.

The compound `COc1ccc(C2(C(=O)N3CCn4c(C)nnc4C3)CC2)cc1` yielded an RP-LC retention time of 584 s.

For `CC(C)c1ccc(S(=O)(=O)N2CCC(n3c(-c4ccoc4)nc4cccnc43)C2)cc1` (centres undefined), the RP-LC retention time came to 1010 s.

In the case of `Cc1ccc(NC(=O)C2CCN(S(=O)(=O)c3cc(C(=O)N(C)C)cs3)CC2)cc1F`, the RP-LC retention time came out at 847 s.

In turn, `COCCC(=O)N1CCC(Oc2nccnc2N2CCc3ccccc32)C1` (centres undefined) came in with an RP-LC retention time of 797 s.

In turn, `CCn1ccc(C(=O)N2CCN(c3cc(-c4ccc(Cl)cc4)[nH]n3)CC2)n1` yielded an RP-LC retention time of 827 s.

`Cc1cc(O)c(C(C[N+](=O)[O-])c2ccc(Cl)cc2Cl)c(=O)o1` (centres undefined) came in with an RP-LC retention time of 803 s.

With `O=C(CN1CCN(Cc2ccc(F)cc2)C1=O)NCCCn1cccn1`, the RP-LC retention time worked out at 672 s.

Compound `Cn1c(=O)sc2cc(S(=O)(=O)N3CCC(C(=O)NCc4ccccn4)CC3)ccc21` showed an RP-LC retention time of 611 s.

The compound `COC(=O)c1ccc(-c2nc3cnccn3c2Nc2cccc(Cl)c2C)cc1` gave an RP-LC retention time of 988 s.

`Clc1ccc(Cl)c(-c2ccc(CNCc3ccccn3)o2)c1` gave an RP-LC retention time of 733 s.

For `COC1CCC12CCN(C(=O)c1ccc(C)s1)CC2` (centres undefined), the RP-LC retention time amounted to 895 s.

On to `O=C(NCC1CCS(=O)(=O)C1)c1cc(-c2cccs2)[nH]n1` (centres undefined), for which the RP-LC retention time was determined as 607 s.

The compound `Cc1nc(N2CCN(c3ccc(F)cc3)CC2)ncc1C(=O)O` displayed an RP-LC retention time of 888 s.

Compound `Cc1ccc(CNC(=O)C2CCCN2S(=O)(=O)c2cc3c(cc2C)NC(=O)CO3)cc1` (centres undefined) showed an RP-LC retention time of 777 s.

`CC1(C(=O)NCc2ccccc2)CN(S(C)(=O)=O)CC(=O)N1Cc1cccc(Br)c1` (centres undefined) yielded an RP-LC retention time of 815 s.

As for `COC[C@@H]1CN(Cc2ccccn2)C[C@H]1c1nc(C2CC2)no1`, the RP-LC retention time was 602 s.

As for `COC(=O)CC1=CC(SCC(=O)Nc2ccc(Cl)cc2F)=Nc2ccccc2N1`, the RP-LC retention time amounted to 910 s.

`Cc1ccc2c(c1)C(c1ccc(F)cc1)N(C(=O)c1ccc(S(=O)(=O)N(C)C)cc1)CC(=O)N2` (centres undefined) gave an RP-LC retention time of 885 s.

In turn, `O=C(NCC(=O)N1CCN(c2ccccc2Cl)CC1)c1c[nH]c2ccccc12` showed an RP-LC retention time of 785 s.

Compound `CCC(=O)N1CC(n2cc(C(=O)NCC3CC3)nn2)C1` yielded an RP-LC retention time of 617 s.

With `Cc1ccc(NC(=O)C2CC(=O)N(c3ccc4oc(C)nc4c3)C2)c(F)c1` (centres undefined), the RP-LC retention time came out at 741 s.

In turn, `Nc1nc(Cl)cc(Nc2ccccc2Cl)n1` registered an RP-LC retention time of 845 s.

In turn, `CCOc1ccc2c(c1)SC(CC(=O)Nc1ccccc1[N+](=O)[O-])C(=O)N2` (centres undefined) yielded an RP-LC retention time of 822 s.

The compound `CN1CCN(c2cc(-c3nc(-c4ccc(Cl)cc4)no3)c3ccccc3n2)CC1` gave an RP-LC retention time of 881 s.

`COc1cc(NC(=O)Cn2nc3nc(N4CCCC(C)C4)ccn3c2=O)cc(OC)c1` (centres undefined) had an RP-LC retention time of 770 s.

For the compound `COc1ccc(C2OC(c3cc(OC)c(OC)c(OC)c3)=NN2C(C)=O)c(OC)c1` (centres undefined), the RP-LC retention time amounted to 885 s.

`COc1ccc(S(=O)(=O)Nc2ccccc2C(=O)Nc2ccc3c(c2)OCCO3)cc1` displayed an RP-LC retention time of 880 s.

In turn, `Cc1cc(C)c(C(=O)N2CCC(CC(=O)NCc3ccc(F)cc3)CC2)[nH]1` registered an RP-LC retention time of 759 s.

For the compound `Cc1[nH]c(=O)[nH]c(=O)c1CCc1nnc(SCC(=O)c2ccc3c(c2)NC(=O)CO3)o1`, the RP-LC retention time was 589 s.

As for `Cc1nn(C(=O)CC(C)C)c(C)c1S(=O)(=O)N1CCCC1`, the RP-LC retention time came out at 586 s.

Compound `CCC(C(=O)N1CCN(c2ccccn2)CC1)n1c(C)c2cnn(-c3ccccc3)c(=O)c2c1C` (centres undefined) yielded an RP-LC retention time of 632 s.

In the case of `Cc1ccc(-c2nc(-c3ccc4c(c3)nnn4CCC(=O)N3CCCC3)no2)c(C)c1`, the RP-LC retention time amounted to 1090 s.

As for `CCCC(NC(=O)c1sccc1C)C(=O)Nc1nc2ccccc2[nH]1` (centres undefined), the RP-LC retention time turned out to be 686 s.

Compound `COc1cccc(-n2c(=O)c(C(=O)NC3CCCC3)c(O)c3cccnc32)c1` showed an RP-LC retention time of 1210 s.

As to `COc1ccc(-c2cc(N3CCN(C(=O)COc4ccc(C)cc4OC)CC3)ncn2)cc1`, the RP-LC retention time was determined as 608 s.

As for `O=C(C1CCC1)N1CCc2sc(S(=O)(=O)NCc3ccc4c(c3)OCO4)cc2C1`, the RP-LC retention time turned out to be 836 s.

`COc1ccccc1-c1csc(NC(=O)c2sc(COc3cccc(C)c3)nc2C)n1` yielded an RP-LC retention time of 1250 s.

As to `COc1ccc(-c2csc(Nc3cccnc3)n2)cc1OC`, the RP-LC retention time was 620 s.

With `CCOCCOC1CCN(C(=O)c2ccco2)CC1`, the RP-LC retention time was 667 s.

On to `O=c1ccn(-c2cccc(F)c2)nc1-c1nc(-c2cccc(Cl)c2)no1`, for which the RP-LC retention time amounted to 992 s.

Regarding `Cc1ccccc1Cn1c(CN2CCC(C(=O)NCCCN3CCCC3)CC2)cc2ccccc21`, the RP-LC retention time was 646 s.

Take `COc1ccc(-c2cc3n(n2)CCCN(C(=O)c2cccnc2)C3)cc1`: the RP-LC retention time is 665 s.

As to `CCOC(=O)c1ncoc1-c1ccccc1C(=O)NC1CCCCC1`, the RP-LC retention time worked out at 770 s.
